Data on 29 compounds can be found in patent US5856166A, “Streptomyces proteases and methods for improved secretion of recombinantly-expressed proteins” (Cangene Corporation, priority 1994, dated 1999).

Where a SMILES comes first, the peptide text is derived from it. [ ]: non-standard residue; d: D form. The star is where a group is joined. Sta = CC(C)C[C@H](N)[C@@H](O)CC(=O)O; pNA = O=[N+]([O-])c1ccc(N*)cc1; AMC = Cc1cc(=O)oc2cc(N*)ccc12; Isovaleryl = CC(C)CC(=O)*; βNA = c1ccc2cc(N*)ccc2c1; Boc = CC(C)(C)OC(=O)*

The target of the first assay is T1, Tap (tripeptidyl aminopeptidase) (Streptomyces lividans, UniProt Q54410).
T1 construct: An autolytic tripeptide cleavage removing APA after signal peptide removal would yield the N-terminal found for the secreted protease; made in house; host or cells: Streptomyces lividans 66 (wild-type strain, native secreted enzyme purified from the broth)
T1 sequence (Q54410 40-537): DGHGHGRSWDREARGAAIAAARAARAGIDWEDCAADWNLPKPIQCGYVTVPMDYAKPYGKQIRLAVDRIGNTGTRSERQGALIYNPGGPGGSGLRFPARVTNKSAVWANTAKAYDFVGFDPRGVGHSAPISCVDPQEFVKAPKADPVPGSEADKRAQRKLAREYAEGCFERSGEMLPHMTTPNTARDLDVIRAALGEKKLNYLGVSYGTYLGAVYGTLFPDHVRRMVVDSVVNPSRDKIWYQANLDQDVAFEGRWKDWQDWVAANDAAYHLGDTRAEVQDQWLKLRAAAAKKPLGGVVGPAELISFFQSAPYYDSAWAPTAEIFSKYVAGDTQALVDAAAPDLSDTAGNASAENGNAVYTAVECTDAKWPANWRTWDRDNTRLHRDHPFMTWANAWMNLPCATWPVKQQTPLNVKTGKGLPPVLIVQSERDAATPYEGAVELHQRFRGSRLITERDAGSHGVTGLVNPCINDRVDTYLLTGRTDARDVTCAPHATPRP
The experiment in a line: Inhibition of TAP in the APA-pNA assay (protease inhibitor survey, Table I). The class given is biochemical, S. lividans 66. Particulars: inhibitor 0.1 mM; preincubated 15 minutes at 22° C.; substrate APA-pNA; enzyme only = 100. How it is done: The protease and inhibitor were preincubated for 15 minutes at 22° C. Substrate was added and the mixture was incubated at 37° C. Activity was measured by monitoring the change in absorbance at λ=405 nm.
(§1) The assay was conducted in a 96 well microtiter plate. To each well in the assay, 50 ul 100 mM Tris-HCl, pH 8.0, were added followed by 25 ul 3.2 mM APA-pNA. 25 ul of Tap were added to the wells and the absorbance was read at 405 nm. The assays were incubated at 37° C. for 2 hours. The absorbance was read at 405 nm. The activity (release of p-nitroaniline) was calculated from the change in absorbance.
In the case of `[Cl][Hg][Cl]` [HgCl1], the “Residual Activity” value is recorded as 99.

On to Chymostatin, for which the “Residual Activity” value is 98.

Staying with this assay, now noted: inhibitor 0.1 mM; preincubated 15 minutes at 22° C.; substrate APA-pNA; enzyme only = 100; read-out: Residual Activity.
As to `CC(C)C[C@H](NC(=O)N[C@H](C(=O)N[C@@H](CCC(N)=O)C(=O)N[C@@H](C)C=O)[C@@H]1CCNC(=N)N1)C(=O)O` [Elastatinal], the remaining activity at 100 µM turned out to be 97%.

Regarding `CC(C)CC(=O)N[C@H](C(=O)N[C@H](C(=O)N[C@@H](CC(C)C)[C@@H](O)CC(=O)N[C@@H](C)C(=O)N[C@@H](CC(C)C)[C@@H](O)CC(=O)O)C(C)C)C(C)C` [Pepstatin] (Isovaleryl-VV[Sta]A[Sta]-OH), the remaining activity at 100 µM was found to be 95%.

Still in this assay, the particulars now being: inhibitor 1.0 mM; preincubated 15 minutes at 22° C.; substrate APA-pNA; enzyme only = 100.
Take `[Cl][Hg][Cl]` [HgCl1]: the “Residual Activity” value turned out to be 93.

For `[Cl-].[Cl-].[Co+2]` [CoCl2], the “Residual Activity” value worked out at 98.

With `[Ca+2].[Cl-].[Cl-]` [CaCl2], the “Residual Activity” value is reported as 96.

Staying with this assay, now noted: inhibitor 1.0 mM; preincubated 15 minutes at 22° C.; substrate APA-pNA; enzyme only = 100; read-out: Residual Activity.
Take `OC(CS)C(O)CS` (stereo not drawn) [DTT]: the remaining activity at 1000 µM came to 86%.

Still in this assay, the particulars now being: inhibitor 10 mM; preincubated 15 minutes at 22° C.; substrate APA-pNA; enzyme only = 100.
Regarding `[Cl-].[Cl-].[Co+2]` [CoCl2], the “Residual Activity” value stood at 97.

Consider `[Ca+2].[Cl-].[Cl-]` [CaCl2], for which the “Residual Activity” value amounted to 97.

Staying with this assay, now noted: inhibitor 10 mM; preincubated 15 minutes at 22° C.; substrate APA-pNA; enzyme only = 100; read-out: Residual Activity.
`N=C(N)c1ccccc1` [Benzamidine]: the remaining activity at 10000 µM was found to be 94%.

Still in this assay, the particulars now being: read-out: Residual Activity.
Consider `O=C(O)CN(CCN(CC(=O)O)CC(=O)O)CC(=O)O` [EDTA, Ethylenediaminetetraacetic acid], for which the remaining activity at 1000 µM amounted to 95% and the remaining activity at 10000 µM stood at 95%.

The next assay addresses T1, Tap (tripeptidyl aminopeptidase). The experiment in a line: Release of reporter group from synthetic substrates by pure Tap. The class given is biochemical, S. lividans 66.
Details: not given
How it is done:
The enzyme was also active when APM-pNA, APA-AMC, APS-bNA, GPL-bNA, and SPA-bNA were used as substrates. […] The enzyme only released the reporter group from substrates with a free amino terminal.
as §1
Regarding `O=C(Nc1ccc([N+](=O)[O-])cc1)[C@@H]1CCCN1` [P-pNA, L-proline p-nitroanilide], the “release of reporter group when used as substrate of Tap” value (“release of reporter group when used” for short) is given as “did not release the reporter group”.

For `C[C@H](N)C(=O)N[C@@H](C)C(=O)Nc1ccc([N+](=O)[O-])cc1` [AA-pNA, L-alanyl-L-alanine p-nitroanilide] (H-Ala-Ala-pNA), the “release of reporter group when used” value is given as “did not release the reporter group”.

`CC(C)C[C@H](NC(=O)[C@@H]1CCCN1C(=O)CN)C(=O)Nc1ccc2ccccc2c1` [GPL-bNA, Glycyl-L-prolyl-L-leucine beta-napthylamide] (H-Gly-Pro-Leu-βNA): the “release of reporter group when used” value is “active”.

For `C[C@H](N)C(=O)Nc1ccc([N+](=O)[O-])cc1` [A-pNA, L-alanine p-nitroanilide], the “release of reporter group when used” value is listed as “did not release the reporter group”.

In the case of “N-benzoyl-L-alanyl-glycyl-L-arginine p-nitroanilide [N-Bz-VGR-pNA]”, the “release of reporter group when used” value is reported as “did not release the reporter group”.

As for `C[C@H](NC(=O)[C@@H]1CCCN1C(=O)[C@@H](N)CO)C(=O)Nc1ccc2ccccc2c1` [SPA-bNA, L-seryl-L-prolyl-L-alanine beta-naphthylamide] (H-Ser-Pro-Ala-βNA), the “release of reporter group when used” value is recorded as “active”.

Regarding `C[C@H](N)C(=O)N1CCC[C@H]1C(=O)N[C@@H](C)C(=O)Nc1ccc([N+](=O)[O-])cc1` [APApNA, L-alanyl-L-prolyl-L-alanine p-nitroanilide] (H-Ala-Pro-Ala-pNA), the “release of reporter group when used” value is on record as “releases p-nitroaniline”.

Consider `C[C@H](N)C(=O)N1CCC[C@H]1C(=O)N[C@@H](CO)C(=O)Nc1ccc2ccccc2c1` [APS-bNA, L-alanyl-L-prolyl-L-serine beta-naphthylamide] (H-Ala-Pro-Ser-βNA), for which the “release of reporter group when used” value was “active”.

Turning to `CC(=O)N[C@@H](C)C(=O)N1CCC[C@H]1C(=O)N[C@@H](C)C(=O)Nc1ccc([N+](=O)[O-])cc1` [N-Ac-APA-pNA, N-acetyl-L-alanyl-L-prolyl-L-alanine p-nitroanilide] (Ac-Ala-Pro-Ala-pNA), the “release of reporter group when used” value was “did not release the reporter group”.

In the case of `C[C@H](NC(=O)[C@@H]1CCCN1C(=O)[C@H](C)NC(=O)OC(C)(C)C)C(=O)N[C@@H](CCCNC(=N)N)C(=O)N[C@@H](CO)C(=O)N1CCC[C@H]1C(=O)N[C@@H](C)C(=O)Nc1ccc2ccccc2c1` [Boc-APARSPA-bNA, L-alanyl-L-prolyl-L-analyl-L-arginyl-L-seryl-L-prolyl-L-alanine beta-naphthylamide] (Boc-APARSPA-βNA), the “release of reporter group when used” value was “did not release the reporter group”.

For the compound `N[C@@H](CO)C(=O)Nc1ccc2ccccc2c1` [S-bNA, L-serine beta-naphthylamide], the “release of reporter group when used” value is given as “did not release the reporter group”.

For the compound `Cc1cc(=O)oc2cc(NC(=O)[C@H](C)NC(=O)[C@@H]3CCCN3C(=O)[C@H](C)N)ccc12` [APA-AMC, L-alanyl-L-prolyl-L-alanine 7-amino-4-methylcoumarin] (H-Ala-Pro-Ala-{AMC}), the “release of reporter group when used” value is on record as “active”.

On to `C[C@H](NC(=O)OC(C)(C)C)C(=O)N[C@@H](C)C(=O)N1CCC[C@H]1C(=O)N[C@@H](C)C(=O)Nc1ccc([N+](=O)[O-])cc1` [Boc-AAPA-pNA, N-t-butoxycarbonyl L-alanyl-L-alanyl-L-prolyl-L-alanine p-nitroanilide] (Boc-AAPA-pNA), for which the “release of reporter group when used” value is listed as “did not release the reporter group”.

For `NCC(=O)N1CCC[C@H]1C(=O)Nc1ccc([N+](=O)[O-])cc1` [GP-pNA, Glycyl-L-proline p-nitroanilide] (H-Gly-Pro-pNA), the “release of reporter group when used” value is listed as “did not release the reporter group”.

As to `CSCC[C@H](NC(=O)[C@@H]1CCCN1C(=O)[C@H](C)N)C(=O)Nc1ccc([N+](=O)[O-])cc1` [APM-pNA, L-alanyl-L-prolyl-L-methione p-nitroanilide] (H-Ala-Pro-Met-pNA), the “release of reporter group when used” value is “active”.

As for `N=C(N)NCCC[C@H](NC(=O)c1ccccc1)C(=O)Nc1ccc([N+](=O)[O-])cc1` [N-Bz-R-pNA], the “release of reporter group when used” value was “did not release the reporter group”.

On to `N=C(N)NCCC[C@H](N)C(=O)Nc1ccc([N+](=O)[O-])cc1` [R-pNA, L-arginine p-nitroanilide], for which the “release of reporter group when used” value is listed as “did not release the reporter group”.

For the compound `N=C(N)NCCC[C@H](NC(=O)[C@H](Cc1ccccc1)NC(=O)[C@H]1CCCN1)C(=O)Nc1ccc([N+](=O)[O-])cc1` [D-PFR-pNA, D-prolyl-L-phenylalanyl-L-arginine p-nitroanilide] (H-[dP]-Phe-Arg-pNA), the “release of reporter group when used” value is “did not release the reporter group”.

As for `C[C@H](N)C(=O)N[C@@H](C)C(=O)N1CCC[C@H]1C(=O)N[C@@H](C)C(=O)Nc1ccc([N+](=O)[O-])cc1` [AAPA-pNA, L-alanyl-L-alanyl-L-prolyl-L-analine p-nitroanilide] (H-AAPA-pNA), the “release of reporter group when used” value is given as “did not release the reporter group”.

For `CC(C)C[C@H](N)C(=O)Nc1ccc([N+](=O)[O-])cc1` [L-pNA, L-leucine p-nitroanilide], the “release of reporter group when used” value is given as “did not release the reporter group”.
